# Assay results from EP0562849A2, “Steroid derivatives” (priority 1992, dated 1993).
# Where “and” joins values, the source holds several entries; their conditions need not be identical. Equal entries are not always repeated. Where two headings read alike, the source gives them in different places.
# Tests used:
# Syrian Golden hamsters = test: In vivo serum cholesterol lowering in hamsters fed a cholesterol test diet; conditions: for Serum Cholesterol Mean: 0.2% (w/w) in Cholesterol Test Diet for one week, equivalent to 100 mg/kg/day, groups of six, control mean 337; for inhibition in vivo at 100 mg/kg/day: Mesocricetus auratus, feed or water, 168 h, read-out: Percent Lowering of Cholesterol from Control Value Mean
# Description: Syrian Golden hamsters were fed a cholesterol test diet made of 10% coconut oil and 0.12% cholesterol (by weight) in Purina 5001 Rodent Chow to induce hypercholesteriolemia.
# After two weeks on the cholesterol test diet the hamsters were bled from the orbital sinium under light CO2 anesthesia. Serum was prepared and analyzed for cholesterol using a commercial test kit (Cholesterol High Performance, Single Vial™, product of Boehringer Mannheim Corp., Indianapolis, IN, USA). The hamsters were separated into groups of six animals, such that each group had approximately the same mean serum cholesterol levels. Selected compounds of the invention were incorporated into the Cholesterol Test Diet at 0.2% (w/w) and fed to the hamsters for one week. A control group of hamsters continued on the Cholesterol Test Diet during the same one-week period. The dose of test compounds of the invention was equivalent to 100 mg/kg/day based on the weight of the hamsters and their diet consumption. Upon completion of the test period, the animals were bled and serum cholesterol determined as above.
# Mean serum cholesterol values from the test hamsters were compared to values from the control group and tested for significance at the Z.05 level using Dunnett's test.
# [1] = system: human LDL receptor promoter; test: in vitro Luciferase Activity Test (LDL receptor promoter-luciferase reporter in recombinant CHO cells); assay type: cell-based; set-up: MED: unit not given here; conditions: for Emax: Homo sapiens, CHO, read-out: MA%; for Emax / MA%: maximum activity (%) over control; for MED: minimum effective dose (molar concentration, unit not given), 24 hr, assay medium with 0.5 µg/ml 25-hydroxycholesterol; for RED: relative effective dose compared to compound of Example 4, below one = more active
# Description: A 1546 base pair sequence of the human LDL receptor promoter was amplified using the polymerase chain reaction. A reaction mixture containing 20 pMoles each of the synthetic oligonucleotides 5'-[…]-3' (Seq. I.D. No: 1) and 5'-AAG-[…]-3', (Seq. I.D. No:2) 1 µg human genomic DNA purified from the adenocarcinoma cell line P3UCLA, 200 µM each of dATP, dGTP, dCTP, and TTP, 2.5 units of Taq DNA polymerase, 10mM Tris-HCI pH 8.3, 50 mM KCI, […], 0.1% gelatin in a final volume of 100 µl was subjected to 30 cycles of 15 sec at 96°C, 30 sec at 55°C, and 1 min at 72°C. The material was subject to gel electrophoresis on a 1% agarose gel and the 1546 base pair band was isolated and restriction enzyme digested with Hind III and Nde I. This fragment was ligated into the plasmid pSP72 (ProMega Biotech), which had previously been restriction enzyme nuclease digested with Hind III and Nde I. The resulting vector, pNLDLRP, was restriction endonulease digested with Ndel and Hind III and the material was again run on a 1% agarose gel to reisolate the 1546 bp LDL receptor sequence.
# Plasmid vector PSv2 was constructed by digesting plasmid pSv2-globin with Hind III and Bgl II then ligating an Nrul-Xhol linker into the vector. Plasmid pSv2 globin is disclosed in U.S. Patent No. 4,775,624, the entire teaching of which is herein incorporated by reference. The linker contained the following sequences: [formula] (Seq. I.D. No: 3), and [formula] ' (Seq. I.D. No:4).
# The resulting vector was designated pSv2-H NXB because it contained a […], an Nrul site, an Xhol site and a Bgl site. The Hind III-Bgl II fragment of plasmid pAlc4(NRRL B-18783), which contains the firefly luciferase gene, was then ligated into the Hin III-Bgl site of plasmid pSv2-HNXB. A neomycin resistance-conforming gene was then ligated into the Bam HI site of the resultant plasmid to form plasmid pSv2.
# A 1546 base pair fragment was isolated and cloned into a Ndel and Hind III (partial) restriction digested vector pSv2 containing the firefly luciferase reporter gene and a gene for neomycin resistance. The resulting vector, pLDL-Luc1 Neo-10, contains the human LDL receptor promoter driving expression of the firefly luciferase gene, a gene coding for neomycin resistance, ampicillin resistant marker and an origin of replication.
# Plasmid pLDL-Luc 1 Neo-10 was used to stably transfect Chinese Hamster Ovary cells using a Lipofection Reagent kit and procedure from Gibco BRL Research Products Division Life Technologies Inc. Transformants were selected by picking individual colonies grown in Dulbecco's modified Eagle's medium supplimented with 10% fetal bovine serum and containing 500 µg per ml […]. […] Clone S27/B30 was used for subsequent screening.
# In developing a cell based screen it is important to have a negative control. The viral SV40 promoter is ideal for this purpose in that it has a number of SP1 elements that enhance gene transcription. These elements are not under the control of end product repression; but they do have a high degree of sequence homology with the 16 base pair long sterol response element found in the LDL receptor promoter. The SV40 promoter should therefore be a sensitive mechanism to screen out agents that induce nonspecific transcription.
# Chinese Hamster Ovary cells were stably cotransfected with a vector pSV2AL-A 5' containing the SV40 promoter driving expression of the firefly luciferase gene and a second vector pSV2 NeoBam containing a neomycin resistant marker. Transfections were carried out using the Lipofectin Reagent kit and procedure from Gibco BRL Research Products Division Life Technologies Inc. Transformants were selected by picking individual colonies grown in Dulbecco's modified Eagle's medium supplemented with 10% fetal bovine serum and containing 500 µg per ml of geneticin. Individual clones were selected, lysed and assayed for luciferase production. […]
# [2] = hamsters, 0.2% (w/w) in diet for one week (100 mg/kg/day), negative values = serum cholesterol increased relative to control
# [3] = 15% luciferase activity cutoff point (footnote 2)
# [4] = NA is not active, 30% luciferase activity cutoff point (footnote 1)
# [5] = tests using 15% luciferase activity cutoff point (footnote 2)
# [6] = 30% luciferase activity cutoff point (footnote 1)
# [7] = tests using 30% luciferase activity cutoff point (footnote 1)
Compound,Serum Cholesterol Mean (Syrian Golden hamsters; hamsters) [mg/dL],"Emax [1, 4] [%]","RED [1, 6]","MED [1, 7]",other results
4a-4-(2-propenyl)cholestan-3-one [Example 72],267,–,–,–,Percent Lowering of Cholesterol from Control Value Mean (Syrian Golden hamsters; [2]): 20.8%
"C=CC[C@@H]1[C@H](O)CC[C@@]2(C)[C@H]1CC[C@@H]1[C@@H]2CC[C@]2(C)[C@@H]([C@H](C)CCCC(C)C)CC[C@@H]12 [(4), (3α,4α,5α,20β)-4-(2-propenyl)cholestan-3-ol]",198,–,–,–,Percent Lowering of Cholesterol from Control Value Mean (Syrian Golden hamsters; [2]): 41.4%
"CC(C)CCC[C@@H](C)[C@H]1CC[C@H]2[C@@H]3CCC4[C@H](Cc5ccccc5)C(=O)CC[C@]4(C)[C@H]3CC[C@]12C (some centres unmarked) [(5), 4a-benzylcholestan-3-one]",202,–,–,–,Percent Lowering of Cholesterol from Control Value Mean (Syrian Golden hamsters; [2]): 40.2%
"CC=CC[C@@H]1[C@@H](O)CC[C@@]2(C)[C@H]1CC[C@@H]1[C@@H]2CC[C@]2(C)[C@@H]([C@H](C)CCCC(C)C)CC[C@@H]12 [(12), (3β,4α,5α)-4-(2-butenyl)cholestan-3-ol]",245,–,–,–,inhibition in vivo at 100 mg/kg/day (Syrian Golden hamsters; [2]): 27.4%
"C=CC[C@H]1C2CC[C@H]3[C@@H]4CC[C@H]([C@@](C)(O)CCCC(C)C)[C@@]4(C)CC[C@@H]3[C@@]2(C)CC[C@H]1O (some centres unmarked) [(13), (3a,4a)-4-(2-propenyl)cholestane-3,20-diol]",253,–,–,–,inhibition in vivo at 100 mg/kg/day (Syrian Golden hamsters; [2]): 25.1%
"CC(C)CCC[C@@H](C)[C@H]1CC[C@H]2[C@@H]3CC[C@H]4[C@H](CC=C(Br)Br)[C@H](O)CC[C@]4(C)[C@H]3CC[C@]12C [(14), (3a,4a,5a)-4-(3,3-dibromo-2-propenyl)cholestan-3-ol]",259,–,–,–,inhibition in vivo at 100 mg/kg/day (Syrian Golden hamsters; [2]): 23.2%
"CC(C)CCC[C@@H](C)[C@H]1CC[C@H]2[C@@H]3CCC4[C@H](Cc5ccccc5)C(=O)CC[C@]4(C)[C@H]3CC[C@]12C (some centres unmarked) [(19), 4a-benzylcholestan-3-one]",312,–,–,–,Percent Lowering of Cholesterol from Control Value Mean (Syrian Golden hamsters; [2]): 7.5%
"C=CCC1C(=O)CC[C@@]2(C)C1CC[C@H]1[C@@H]3CC[C@H]([C@H](C)CCCC(C)C)[C@@]3(C)CC[C@@H]12 (some centres unmarked) [(21), 4-(2-propenyl)cholestan-3-one]",330,–,–,–,inhibition in vivo at 100 mg/kg/day (Syrian Golden hamsters; [2]): 2%
"CC(C)CCC[C@@H](C)[C@H]1CC[C@H]2[C@@H]3CC[C@H]4C[C@H](O)CC[C@]4(C)[C@H]3CC[C@]12C [(24), 5a-cholestan-3a-ol, reference compound]",422,–,–,–,inhibition in vivo at 100 mg/kg/day (Syrian Golden hamsters): -25%
"C=CC[C@H]1C2CC[C@@H]3[C@H](CC[C@]4(C)C(OCCCC(C)(C)C)CC[C@@H]34)[C@@]2(C)CC[C@H]1O (stereo partly drawn) [Example 69, (3α,4α)-17-[(4,4-dimethylpentyl)oxy]-4-(2-propenyl)-androstan-3-ol]",–,39,16.4 and 8.2,–,"Emax [1, 3]: 48%; MA% [1, 4]: 47%; MED [1, 5]: 46.5; RED [1, 3]: 20.5"
"C=CC[C@@H]1C(=O)/C(=C/O)C[C@]2(C)[C@H]3CC[C@]4(C)[C@@H]([C@H](C)CCCC(C)C)CC[C@H]4[C@@H]3CC[C@@H]12 [Example 73, 4a-2-(hydroxymethylene)-4-(2-propenyl)cholestan-3-one]",–,–,–,–,"Emax [1, 3]: 27%; MED [1, 5]: 11.0; RED [1, 3]: 0.97"
"CC(C)CCC[C@@H](C)[C@H]1CC[C@H]2[C@@H]3CC[C@H]4C[C@H](O)[C@H](Cc5ccc(F)cc5)C[C@]4(C)[C@H]3CC[C@]12C [Example 79, (2a, 3a, 5a)-2-[(4-fluorophenyl)methyl]cholestan-3-ol]",–,29,5.4,40.3,–
"C=CC[C@@H]1[C@@H](O)CC[C@@]2(C)[C@H]1CC[C@@H]1[C@@H]2CC[C@]2(C)[C@@H]([C@H](C)CCCC(C)C)CC[C@@H]12 [Example 80, (3β,4α,5α,20β)-4-(2-propenyl)cholestan-3-ol]",269,–,–,–,inhibition in vivo at 100 mg/kg/day (Syrian Golden hamsters; [2]): 20.2%
"CC(C)CCC[C@@H](C)[C@H]1CC[C@H]2[C@@H]3CC[C@H]4[C@H](CC=C(F)F)[C@H](O)CC[C@]4(C)[C@H]3CC[C@]12C [Example 85, (3a, 4a, 5a, 20β)-4-(3,3-difluoro-2-propenyl) cholestan-3-ol]",–,138,0.36,2.7,–
"C=C(C)C[C@@H]1[C@H](O)CC[C@@]2(C)[C@H]1CC[C@@H]1[C@@H]2CC[C@]2(C)[C@@H]([C@H](C)CCCC(C)C)CC[C@@H]12 [Example 89, (3a,4a,5a)-4-(2-methyl-2-propenyl)cholestan-3-ol]",–,102,0.25,2.8,–
"C=C(Cl)C[C@@H]1[C@H](O)CC[C@@]2(C)[C@H]1CC[C@@H]1[C@@H]2CC[C@]2(C)[C@@H]([C@H](C)CCCC(C)C)CC[C@@H]12 [Example 91, (3a,4a,5a)-4-(2-chloro-2-propenyl)cholestan-3-ol]",–,96,0.24,2.7,–
"C=C(Br)C[C@@H]1[C@H](O)CC[C@@]2(C)[C@H]1CC[C@@H]1[C@@H]2CC[C@]2(C)[C@@H]([C@H](C)CCCC(C)C)CC[C@@H]12 [Example 93, (3a,4a,5a)-4-(2-bromo-2-propenyl)cholestan-3-ol]",–,131,0.43,4.9,–
"C=CC[C@@H]1[C@H](O)CC[C@@]2(C)[C@H]1CC[C@@H]1[C@@H]2CC[C@]2(C)[C@@H]([C@H](C)CC[C@@H](CC)C(C)C)CC[C@@H]12 [Example 96, (3a, 4a, 5a)-4-(2-propenyl)-stigmastan-3-ol]",–,93,0.73,8.3,–
"C=CC[C@@H]1[C@H](O)CC[C@@]2(C)[C@H]1CC[C@@H]1[C@@H]2CC[C@]2(C)[C@@H]([C@H](C)/C=C/[C@@H](CC)C(C)C)CC[C@@H]12 [Example 98, (3a, 4a, 5a, 22E)-4-(2-propenyl)-stigmast-22-en-3-ol]",–,66,2.0,22,–
"[4a(E),5α]-4-(2-butenyl)-25-hydroxycholestan-3a-ol [Example 6]",–,–,–,–,"MA% [1, 3]: 72% and 67%; MED [1, 5]: 21.7; RED [1, 3]: 0.96 and 1.90"
